Measurements from patent US9902735B2, “Heteroaryl substituted compounds as RORγ inhibitors” (GlaxoSmithKline Intellectual Property Developement Limited, priority 2014, dated 2018).

Key:
C57BL/6NTac mice [1] = test: Imiquimod-induced skin inflammation, ear-only model (ear thickness); type: in vivo, mouse; conditions: for imiquimod-induced ear thickening: oral gavage twice daily, Studies 1-4
Description: (§1) Imiquimod is an immune modifying agent that potently activates specific Toll-like receptors (e.g., TLR7) and induces irritation/inflammation of the skin that requires the IL23R/RORγ/IL17 axis of the immune system (van der Fits et al, (2009) J Immunol; 182:5836-5845; Gray et al, (2013) Nature Immunol; June; 14(6):584-92). The imiquimod-induced skin inflammation model can be used to assess the ability of an RORγ inhibitor to reduce Th17-driven inflammation in mice. For the ear-only skin inflammation model in which ear thickness was measured with digital engineer's calipers (Mitutoyo PK-0505), female wild type C57BL/6NTac mice obtained from Taconic (Hudson, N.Y.) at 8 to 12 wk of age received a daily topical dose of 10 mg of commercially available imiquimod cream (5%) (Aldara; Medicis) distributed over both ears at approximately 11:00 h for up to 4 consecutive days. Alternatively, 72 mg of Aldara was distributed over both ears and the shaved/depiliated back skin of mice at approximately 11:00 h for 3 consecutive days to examine RORγ-dependent gene expression (RNA isolated from both ears using Qiazol followed by clean-up on with the RNeasy protocol (Qiagen, Germantown, Md.); Taqman probe/primer sets for B2M (Mm00437762_ml), IL-17A (Mm00439619_ml), IL-17F (Mm00521423_ml), or IL-22 (Mm00444241_ml) (Thermo Fisher Scientific, Inc., Waltham, Mass.) and ex vivo stimulated (anti-CD3 (2 μg/ml, clone eBio500A2, eBioscience, San Diego, Calif.), anti-CD28 (1 μg/ml, clone 37.51, BD Bioscience, San Jose, Calif.), recombinant mouse IL-13 (20 ng/ml, R&D Systems, Minneapolis, Minn.), and recombinant mouse IL-23 (20 ng/ml, R&D Systems, Minneapolis, Minn.) IL-17A protein expression from whole blood (Meso Scale Discovery, Rockville, Md.). For treatment of the skin inflammation in these models, each compound or vehicle (methylcellulose in water, 1% w/v, Sigma Aldrich, St. Louis, Mo.) was administered via oral gavage at approximately 08:00 h and 16:00 h daily at various doses selected from 1, 3, 10, and 30 mg/kg.

C57BL/6NTac mice [2] = test: Imiquimod-induced skin inflammation, ears and back skin: RORγ-dependent gene expression and ex vivo stimulated whole blood IL-17A; type: in vivo, mouse
Description: as §1

Cc1c(CN2CCN(C(=O)C3CCCC3)[C@@H](C)C2)cc(Cl)cc1NC(=O)CCS(C)(=O)=O [Example 43, (S)—N-(5-chloro-3-((4-(cyclopentanecarbonyl)-3-methylpiperazin-1-yl)methyl)-2-methylphenyl)-3-(methylsulfonyl)propanamide]
imiquimod-induced ear thickening (C57BL/6NTac mice [1]; 10 mg/kg): statistically significant reduction
imiquimod-induced ear thickening (C57BL/6NTac mice [1]; 30 mg/kg): statistically significant reduction
imiquimod-induced ear thickening, versus vehicle (FIG. 1) (C57BL/6NTac mice [1]; FIG. 1, dose not stated): statistically significant reduction
IL17A protein expressed following ex vivo stimulation of whole blood (C57BL/6NTac mice [2]; study A, 10 mg/kg oral): significantly reduced
ear mRNA levels of IL17A, IL17F, or IL22 (C57BL/6NTac mice [2]; study A, 10 mg/kg oral): no significant reduction
IL17F mRNA levels in the ear skin (C57BL/6NTac mice [2]; study B, 10 mg/kg oral): significantly reduced
IL22 mRNA levels in the ear skin (C57BL/6NTac mice [2]; study B, 10 mg/kg oral): significantly reduced
IL17A mRNA levels in the ear skin (C57BL/6NTac mice [2]; study C): reached statistical significance
